Data on 3 compounds can be found in patent US7569690B2, “Process for producing oxycarbonyl-substituted piperazine derivative” (Toray Fine Chemicals Co., Ltd., priority 2002, dated 2009).

The nature of series [1]: Thermal stability of the oxycarbonyl-substituted piperazine derivative (standing at temperature, liquid chromatography purity). Type of series: physicochemical. How it is done:
It was confirmed that the stability of the compound is greatly affected by the temperature and the heating time period.
It was noticed that when, for example, 1-benzyloxycarbonyl-3-methylpiperazine with a purity of 99.3 liquid chromatography area % was allowed to stand at 120° C., 160° C. or 200° C. for 12 hours, their liquid chromatography purity declined to 99.0 liquid chromatography area %, 95.6 liquid chromatography area % and 59.7 liquid chromatography area % respectively, and that the liquid chromatography purity of 1-benzyl-4-benzyloxycarbonyl-2-methylpiperazine corresponding to the compound represented by the general formula (7) rose to 0.2 liquid chromatography area %, 3.2 liquid chromatography area % and 30.7 liquid chromatography area % respectively.
Furthermore, when the compound was allowed to stand at 160° C. for 1 hour, the purity was 98.8 liquid chromatography area %, and it can be seen that the decomposition rate was small compared with the case of 12 hours.
For measuring the contents of the impurities contained in the oxycarbonyl-substituted piperazine derivative represented by the general formula (2), liquid chromatography is used. The analytical column for liquid chromatography used for analysis is a column using an octadecyl -based composition as a packing material. Particularly the use of Capcellpak C18, 120 angstroms, 5 μm, 4.6 mm×150 mm (Shiseido) is desirable.
The mobile phase is 5 mM sodium dodecyl sulfate (hereinafter abbreviated as SDS) aqueous solution (pH 2.5, phosphoric acid)/acetonitrile, and a gradient method for changing the composition with the lapse of time is used for analysis. That is, the acetonitrile content in the mobile phase is kept at 31 vol % from the start of analysis to 15 minutes later, and the acetonitrile content is then increased at a constant rate up to 45 vol %, taking 10 minutes, being kept at 45 vol % from 25 minutes later to 40 minutes later. The detector used is a UV measuring instrument, and the detection wavelength is 210 nm. The detection wavelength is very important, and if the detection wavelength is changed, the analyzed value may change. The reason is that the maximum wavelength of UV absorption changes depending on the compound. In this system, it is desirable that the wavelength is from 210 to 230 nm at which the ratios of the absorption sensitivity of the compound represented by the general formula (2) to the absorption sensitivities the compounds represented by the general formulae (5) to (8) are from 0.6 to 1.5. Analysis is made at a column oven temperature of 40° C. In the case where analysis is made under the above-mentioned analytical conditions, the retention times of 1-benzyloxycarbonyl-3-methylpiperazine and the impurities corresponding to the general formulae (5) to (8), i.e., 1,4-bis(carbobenzyloxy)-2-methylpiperazine, 1-benzyl-3-methylpiperazine, 4-benzyloxycarbonyl-1-benzyl-2-methylpiperazine and benzyl alcohol were 23.1 minutes, 31.0 minutes, 31.0 minutes, 30.0 minutes and 2.7 minutes respectively. The values of their area percentages can be used to obtain the impurity contents.

For series [2] the following is noted: cited from earlier work.

In the case of `CC1CN(C(=O)OCc2ccccc2)CCN1` (stereo not drawn) [1-benzyloxycarbonyl-3-methylpiperazine], the figures for the “Liquid chromatography purity of decomposition product 1-benzyl-4-benzyloxycarbonyl-2-methylpiperazine after standing” value in series [1] (120° C. for 12 hours), in series [1] (160° C. for 12 hours) and in series [1] (200° C. for 12 hours) were 0.2 liquid chromatography area %, 3.2 liquid chromatography area % and 30.7 liquid chromatography area %, respectively. The “Liquid chromatography purity after standing” value is listed as 99.0 liquid chromatography area % in series [1] (120° C. for 12 hours, starting purity 99.3 liquid chromatography area %); 98.8 liquid chromatography area % in series [1] (160° C. for 1 hour); 95.6 liquid chromatography area % in series [1] (160° C. for 12 hours, starting purity 99.3 liquid chromatography area %); 59.7 liquid chromatography area % in series [1] (200° C. for 12 hours, starting purity 99.3 liquid chromatography area %).
The pKa is the pH at which an ionisable group is half protonated. With `COc1ccccn1` [2-methoxypyridine], the pKa in series [2] is 6.62.
Take `c1cn[nH]c1` [pyrazole]: in series [2], the pKa is 2.5.
